Common to all, as to test: Kinase profiling
Holding throughout (type): biochemical

One assay concerns the target T1, TSSK1 (Homo sapiens, UniProt Q9BXA7).
T1 construct: purchased ProQinase (Freiburg, Germany)
T1 sequence (Q9BXA7 1-367): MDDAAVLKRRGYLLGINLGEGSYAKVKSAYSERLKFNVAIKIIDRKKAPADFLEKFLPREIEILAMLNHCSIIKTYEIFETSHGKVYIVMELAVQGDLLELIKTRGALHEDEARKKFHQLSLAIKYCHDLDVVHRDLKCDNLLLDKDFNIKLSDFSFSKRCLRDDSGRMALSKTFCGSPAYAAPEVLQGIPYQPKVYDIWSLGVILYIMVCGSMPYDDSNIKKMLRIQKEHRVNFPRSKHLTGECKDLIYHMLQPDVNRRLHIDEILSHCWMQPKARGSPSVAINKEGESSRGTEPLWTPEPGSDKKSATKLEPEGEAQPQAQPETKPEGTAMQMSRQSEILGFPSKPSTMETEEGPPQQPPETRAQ
The method, then:
(§1) The analysis was performed by ProQinase (Freiburg, Germany).

The target of the next assay is T2, RPS6KA6 (Homo sapiens, UniProt Q9UK32).
T2 construct: purchased ProQinase (Freiburg, Germany)
Here is the method: as §1

In a further assay the target is T3, ROCK1 (Homo sapiens, UniProt Q13464).
T3 construct: purchased ProQinase (Freiburg, Germany)
The method, then:
as §1

The target of a further assay is T4, EEF2K (Homo sapiens, UniProt O00418).
T4 construct: purchased ProQinase (Freiburg, Germany)
T4 sequence (O00418 1-725): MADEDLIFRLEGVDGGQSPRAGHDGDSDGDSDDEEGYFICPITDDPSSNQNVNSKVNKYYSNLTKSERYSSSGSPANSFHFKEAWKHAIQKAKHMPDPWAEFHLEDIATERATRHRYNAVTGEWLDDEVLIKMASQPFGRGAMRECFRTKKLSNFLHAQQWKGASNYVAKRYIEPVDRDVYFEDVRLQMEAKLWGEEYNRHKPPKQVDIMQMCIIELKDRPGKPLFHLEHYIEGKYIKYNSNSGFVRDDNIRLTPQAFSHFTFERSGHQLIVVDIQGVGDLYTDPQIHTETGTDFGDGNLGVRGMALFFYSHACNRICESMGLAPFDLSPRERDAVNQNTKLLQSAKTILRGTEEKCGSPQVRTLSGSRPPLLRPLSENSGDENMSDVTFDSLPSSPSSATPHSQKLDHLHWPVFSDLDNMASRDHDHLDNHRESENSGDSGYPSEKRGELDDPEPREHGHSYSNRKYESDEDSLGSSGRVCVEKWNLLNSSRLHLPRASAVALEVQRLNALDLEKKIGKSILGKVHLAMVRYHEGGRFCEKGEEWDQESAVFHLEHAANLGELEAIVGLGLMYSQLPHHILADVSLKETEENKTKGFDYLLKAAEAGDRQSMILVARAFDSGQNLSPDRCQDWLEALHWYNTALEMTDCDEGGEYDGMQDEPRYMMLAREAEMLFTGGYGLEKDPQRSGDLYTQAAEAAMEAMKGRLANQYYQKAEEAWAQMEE
The method, then:
as §1

A further assay has as its target T5, RPS6KA5 (Homo sapiens, UniProt O75582).
T5 construct: purchased ProQinase (Freiburg, Germany)
Here is the method:
as §1

In another assay the target is T6, p38gamma (Homo sapiens, UniProt P53778).
T6 construct: purchased ProQinase (Freiburg, Germany)
T6 sequence (P53778 1-367): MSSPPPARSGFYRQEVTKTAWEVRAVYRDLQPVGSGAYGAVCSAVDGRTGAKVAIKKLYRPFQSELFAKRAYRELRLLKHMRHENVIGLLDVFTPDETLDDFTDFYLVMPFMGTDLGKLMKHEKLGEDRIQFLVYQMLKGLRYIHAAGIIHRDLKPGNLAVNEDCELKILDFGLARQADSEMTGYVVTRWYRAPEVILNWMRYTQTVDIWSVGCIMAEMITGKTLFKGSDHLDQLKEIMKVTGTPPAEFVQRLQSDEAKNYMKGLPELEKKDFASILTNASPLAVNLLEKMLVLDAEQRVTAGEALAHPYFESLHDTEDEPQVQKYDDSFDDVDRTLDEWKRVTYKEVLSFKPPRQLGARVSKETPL
Here is the method:
as §1

A further assay concerns the target T7, STK17A (Homo sapiens, UniProt Q9UEE5).
T7 construct: purchased ProQinase (Freiburg, Germany)
T7 sequence (Q9UEE5 1-414): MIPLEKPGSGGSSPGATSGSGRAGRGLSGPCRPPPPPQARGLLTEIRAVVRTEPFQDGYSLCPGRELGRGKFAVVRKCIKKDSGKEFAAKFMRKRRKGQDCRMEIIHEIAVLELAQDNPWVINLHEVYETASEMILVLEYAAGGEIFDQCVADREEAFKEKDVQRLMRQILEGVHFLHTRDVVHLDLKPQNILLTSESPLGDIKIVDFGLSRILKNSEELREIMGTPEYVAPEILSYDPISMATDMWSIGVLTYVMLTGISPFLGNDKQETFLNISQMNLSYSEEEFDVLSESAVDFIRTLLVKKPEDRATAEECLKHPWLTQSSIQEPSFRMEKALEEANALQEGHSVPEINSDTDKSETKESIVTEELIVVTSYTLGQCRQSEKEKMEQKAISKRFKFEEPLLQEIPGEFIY
The method, then:
as §1

The next assay deals with T8, PAK3 (Homo sapiens, UniProt O75914).
T8 construct: purchased ProQinase (Freiburg, Germany)
Here is the method:
as §1

A further assay addresses T9, PIM1 (Homo sapiens, UniProt P11309).
T9 construct: purchased ProQinase (Freiburg, Germany)
The method, then: as §1

Another assay deals with T10, SNK (Homo sapiens, UniProt Q9NYY3).
T10 construct: purchased ProQinase (Freiburg, Germany)
The method, then:
as §1

Molecules are shown by their SMILES.

T9 sequence (P11309 whole entry): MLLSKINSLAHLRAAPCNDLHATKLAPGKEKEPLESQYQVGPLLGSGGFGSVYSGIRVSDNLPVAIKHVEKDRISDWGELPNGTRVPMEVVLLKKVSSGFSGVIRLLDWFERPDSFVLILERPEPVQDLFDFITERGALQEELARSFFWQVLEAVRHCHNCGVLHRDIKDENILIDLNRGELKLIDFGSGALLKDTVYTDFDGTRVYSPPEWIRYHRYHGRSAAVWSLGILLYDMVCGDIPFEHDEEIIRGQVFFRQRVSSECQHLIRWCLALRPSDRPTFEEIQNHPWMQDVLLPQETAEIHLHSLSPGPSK
T5 sequence (O75582 whole entry): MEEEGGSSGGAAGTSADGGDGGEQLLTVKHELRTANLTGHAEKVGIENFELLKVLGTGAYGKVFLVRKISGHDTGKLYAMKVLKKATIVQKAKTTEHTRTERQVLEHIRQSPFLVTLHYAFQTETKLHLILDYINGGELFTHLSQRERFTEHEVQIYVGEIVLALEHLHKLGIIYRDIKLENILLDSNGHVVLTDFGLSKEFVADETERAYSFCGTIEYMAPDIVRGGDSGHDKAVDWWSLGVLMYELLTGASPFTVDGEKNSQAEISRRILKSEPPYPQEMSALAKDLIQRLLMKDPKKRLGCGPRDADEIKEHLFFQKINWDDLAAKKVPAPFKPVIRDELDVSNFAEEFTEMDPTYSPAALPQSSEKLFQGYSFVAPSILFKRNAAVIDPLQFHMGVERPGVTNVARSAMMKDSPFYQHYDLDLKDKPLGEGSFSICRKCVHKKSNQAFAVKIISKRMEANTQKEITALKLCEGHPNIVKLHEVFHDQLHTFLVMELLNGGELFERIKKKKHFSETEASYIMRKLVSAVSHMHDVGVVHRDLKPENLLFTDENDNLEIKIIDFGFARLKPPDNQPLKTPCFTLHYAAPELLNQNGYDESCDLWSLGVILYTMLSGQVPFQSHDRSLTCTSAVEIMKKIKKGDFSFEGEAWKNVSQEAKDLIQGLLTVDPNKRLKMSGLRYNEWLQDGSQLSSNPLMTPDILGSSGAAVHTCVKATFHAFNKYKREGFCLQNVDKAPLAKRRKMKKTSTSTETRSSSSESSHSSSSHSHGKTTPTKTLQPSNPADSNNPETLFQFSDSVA
T10 sequence (Q9NYY3 whole entry): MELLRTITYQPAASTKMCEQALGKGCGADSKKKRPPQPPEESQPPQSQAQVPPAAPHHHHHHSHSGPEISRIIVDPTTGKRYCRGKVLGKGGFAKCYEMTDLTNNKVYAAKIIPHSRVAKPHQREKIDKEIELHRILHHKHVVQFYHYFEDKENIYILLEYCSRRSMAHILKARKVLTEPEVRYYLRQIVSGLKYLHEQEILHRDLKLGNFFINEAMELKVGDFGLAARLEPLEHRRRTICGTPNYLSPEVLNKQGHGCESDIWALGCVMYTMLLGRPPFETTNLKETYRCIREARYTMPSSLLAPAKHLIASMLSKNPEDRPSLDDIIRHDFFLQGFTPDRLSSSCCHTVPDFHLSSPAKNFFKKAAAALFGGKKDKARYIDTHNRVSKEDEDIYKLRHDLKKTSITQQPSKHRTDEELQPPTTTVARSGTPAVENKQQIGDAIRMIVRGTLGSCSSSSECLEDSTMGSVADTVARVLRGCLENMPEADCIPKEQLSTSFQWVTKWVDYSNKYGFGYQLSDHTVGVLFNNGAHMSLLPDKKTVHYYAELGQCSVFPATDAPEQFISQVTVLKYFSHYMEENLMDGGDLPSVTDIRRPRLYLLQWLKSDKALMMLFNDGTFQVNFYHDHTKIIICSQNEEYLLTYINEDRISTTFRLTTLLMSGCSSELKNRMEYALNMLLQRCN
T3 sequence (Q13464 whole entry): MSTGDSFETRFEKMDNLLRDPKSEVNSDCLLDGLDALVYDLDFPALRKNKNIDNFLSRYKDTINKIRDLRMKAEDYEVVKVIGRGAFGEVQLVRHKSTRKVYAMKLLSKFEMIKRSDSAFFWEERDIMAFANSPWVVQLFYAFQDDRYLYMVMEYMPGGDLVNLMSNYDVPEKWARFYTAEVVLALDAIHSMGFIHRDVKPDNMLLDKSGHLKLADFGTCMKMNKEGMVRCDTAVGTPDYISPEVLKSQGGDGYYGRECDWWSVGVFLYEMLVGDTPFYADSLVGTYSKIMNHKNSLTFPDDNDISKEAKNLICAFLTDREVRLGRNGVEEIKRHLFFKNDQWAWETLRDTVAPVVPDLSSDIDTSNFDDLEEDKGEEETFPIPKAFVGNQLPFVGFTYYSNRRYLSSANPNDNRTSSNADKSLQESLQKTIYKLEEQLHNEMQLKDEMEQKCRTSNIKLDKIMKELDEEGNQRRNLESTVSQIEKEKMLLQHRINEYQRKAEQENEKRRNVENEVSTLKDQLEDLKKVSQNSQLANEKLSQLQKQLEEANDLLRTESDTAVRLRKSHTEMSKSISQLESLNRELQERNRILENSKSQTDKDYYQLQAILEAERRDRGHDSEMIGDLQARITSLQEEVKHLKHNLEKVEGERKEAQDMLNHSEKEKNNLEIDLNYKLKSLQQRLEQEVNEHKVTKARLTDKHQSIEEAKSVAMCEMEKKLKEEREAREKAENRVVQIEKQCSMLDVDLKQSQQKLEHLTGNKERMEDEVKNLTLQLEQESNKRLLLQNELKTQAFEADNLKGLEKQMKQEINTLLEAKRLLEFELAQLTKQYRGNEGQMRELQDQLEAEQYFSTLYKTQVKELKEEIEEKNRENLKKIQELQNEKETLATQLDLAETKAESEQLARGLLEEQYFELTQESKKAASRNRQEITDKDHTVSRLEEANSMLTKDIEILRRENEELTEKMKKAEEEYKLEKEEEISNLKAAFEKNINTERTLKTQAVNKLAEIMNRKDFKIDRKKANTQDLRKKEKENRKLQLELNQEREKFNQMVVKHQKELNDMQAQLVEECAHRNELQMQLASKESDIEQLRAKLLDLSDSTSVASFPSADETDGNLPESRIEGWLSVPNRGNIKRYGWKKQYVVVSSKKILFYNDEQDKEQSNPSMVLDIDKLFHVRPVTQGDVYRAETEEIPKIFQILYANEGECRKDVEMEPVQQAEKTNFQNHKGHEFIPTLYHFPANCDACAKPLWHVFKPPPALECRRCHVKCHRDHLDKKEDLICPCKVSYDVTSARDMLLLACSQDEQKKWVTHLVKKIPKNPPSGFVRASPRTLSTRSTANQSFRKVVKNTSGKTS
T8 sequence (O75914 whole entry): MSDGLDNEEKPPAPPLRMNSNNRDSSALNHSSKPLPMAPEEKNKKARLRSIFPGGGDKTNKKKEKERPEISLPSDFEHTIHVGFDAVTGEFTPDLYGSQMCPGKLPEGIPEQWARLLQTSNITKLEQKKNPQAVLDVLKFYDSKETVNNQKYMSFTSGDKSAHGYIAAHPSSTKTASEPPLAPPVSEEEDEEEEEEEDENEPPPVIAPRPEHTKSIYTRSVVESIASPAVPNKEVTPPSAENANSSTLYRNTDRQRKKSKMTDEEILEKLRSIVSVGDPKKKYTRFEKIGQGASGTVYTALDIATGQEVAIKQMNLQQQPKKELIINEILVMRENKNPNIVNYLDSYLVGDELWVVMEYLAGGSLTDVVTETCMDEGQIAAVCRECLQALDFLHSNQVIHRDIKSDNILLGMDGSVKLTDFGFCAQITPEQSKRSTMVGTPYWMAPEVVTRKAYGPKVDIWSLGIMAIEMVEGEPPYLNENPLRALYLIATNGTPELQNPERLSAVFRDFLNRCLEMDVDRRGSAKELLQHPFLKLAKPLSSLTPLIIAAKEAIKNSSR
T2 sequence (Q9UK32 whole entry): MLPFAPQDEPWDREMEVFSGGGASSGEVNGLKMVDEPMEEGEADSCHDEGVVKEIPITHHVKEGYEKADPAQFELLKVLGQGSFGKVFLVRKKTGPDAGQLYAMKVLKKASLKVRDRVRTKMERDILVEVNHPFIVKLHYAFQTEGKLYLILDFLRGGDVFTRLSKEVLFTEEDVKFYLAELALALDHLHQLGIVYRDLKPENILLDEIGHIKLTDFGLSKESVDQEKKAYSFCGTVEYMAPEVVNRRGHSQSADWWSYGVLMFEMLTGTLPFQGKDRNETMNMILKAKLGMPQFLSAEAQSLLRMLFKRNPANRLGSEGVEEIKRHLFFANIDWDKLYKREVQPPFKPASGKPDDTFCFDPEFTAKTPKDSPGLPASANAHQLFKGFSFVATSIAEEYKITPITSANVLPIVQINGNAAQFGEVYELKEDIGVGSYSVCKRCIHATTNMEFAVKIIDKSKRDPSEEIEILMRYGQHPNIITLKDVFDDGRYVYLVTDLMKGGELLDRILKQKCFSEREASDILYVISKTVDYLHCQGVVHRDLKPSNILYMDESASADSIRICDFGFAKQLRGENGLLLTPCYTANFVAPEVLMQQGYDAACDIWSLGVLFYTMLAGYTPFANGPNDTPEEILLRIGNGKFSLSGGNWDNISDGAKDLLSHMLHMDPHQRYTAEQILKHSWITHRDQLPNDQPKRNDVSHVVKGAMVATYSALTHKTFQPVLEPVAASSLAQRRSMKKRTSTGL

Regarding `O=C(Cc1ccccc1)Nc1ccc(F)c(Nc2ccc3c(c2)CCCCC3=O)c1` [Compound 100], the Residual activity on TSSK1 (1.0E-05 M) was 105 % of control; on TSSK1 (1.0E-06 M), 112 % of control; at RPS6KA6 (1.0E-05 M) it was 83 % of control; on RPS6KA6 (1.0E-06 M), 90 % of control; at ROCK1 (1.0E-05 M) it was 92 % of control; on ROCK1 (1.0E-06 M), 99 % of control. Moreover, the Residual activity at EEF2K (1.0E-05 M) is 89 % of control; on EEF2K (1.0E-06 M), 102 % of control; at RPS6KA5 (1.0E-05 M), 97 % of control; on RPS6KA5 (1.0E-06 M) it was 104 % of control; at p38gamma (1.0E-05 M) it was 84 % of control; at p38gamma (1.0E-06 M) it was 93 % of control. The Residual activity at STK17A (1.0E-05 M) is listed as 76 % of control; on STK17A (1.0E-06 M), 111 % of control; at PAK3 (1.0E-05 M) it was 74 % of control; on PAK3 (1.0E-06 M) it was 88 % of control; at PIM1 (1.0E-05 M), 74 % of control; at PIM1 (1.0E-06 M) it was 88 % of control. Moreover, the figures for the Residual activity on SNK (1.0E-05 M) and at SNK (1.0E-06 M) were 90 % of control and 102 % of control, respectively.
Turning to `O=C(Nc1ccc(F)c(Nc2ccc3c(c2)CCCCC3=O)c1)c1cccc(F)c1` [Compound 109], the Residual activity at TSSK1 (1.0E-05 M) is 102 % of control; on TSSK1 (1.0E-06 M), 102 % of control; at RPS6KA6 (1.0E-05 M) it was 81 % of control; at RPS6KA6 (1.0E-06 M), 88 % of control; at ROCK1 (1.0E-05 M) it was 102 % of control; on ROCK1 (1.0E-06 M), 99 % of control. Further, the Residual activity on EEF2K (1.0E-05 M) is 94 % of control; at EEF2K (1.0E-06 M) it was 95 % of control; on RPS6KA5 (1.0E-05 M), 93 % of control; at RPS6KA5 (1.0E-06 M), 96 % of control; on p38gamma (1.0E-05 M), 52 % of control; on p38gamma (1.0E-06 M), 88 % of control. Further, the Residual activity on STK17A (1.0E-05 M) is recorded as 88 % of control; at STK17A (1.0E-06 M), 105 % of control; at PAK3 (1.0E-05 M) it was 79 % of control; on PAK3 (1.0E-06 M), 92 % of control; at PIM1 (1.0E-05 M), 70 % of control; on PIM1 (1.0E-06 M), 96 % of control. For the same compound, the Residual activity on SNK (1.0E-05 M) is 92 % of control; at SNK (1.0E-06 M) it was 94 % of control.

The record behind these values is article PMC9030254, “Target Hopping from Protein Kinases to PXR: Identification of Small-Molecule Protein Kinase Inhibitors as Selective Modulators of Pregnane X Receptor from TüKIC Library” (Cells, 2022).
